According to patent US20030187261A1, “Purine derivatives, process for their preparation and use thereof” (priority 2000, published 2003):
Read-outs that look alike come from different tables or passages of the source.

Experiments:
MPF activity = assay: M-phase promoting factor inhibition in metaphase-arrested Xenopus egg extracts; type: biochemical; conditions: 1.5 h after addition
Protocol: (§1) Metaphase-arrested Xenopus egg extracts were prepared as described previously by Blow “J. Cell Biol.” 1993, 122:993 and stored in liquid nitrogen. Demembranated Xenopus sperm nuclei were prepared as described by Blow & Laskey “Cell” 1986;47:577.
(§2) At concentrations of cdk inhibitors (see Table 6) ranging from 0.1-2 μM, chromosomes remained highly condensed and no nuclear envelope was visible. At 4-6 μM and higher concentrations, interphase nuclei appeared with partially decondensed chromatin and an intact nuclear envelope. […] For the inhibition effect to become detectable, the first 15-min incubation of the interphase extract is probably sufficient.

DNA synthesis = DNA synthesis in Xenopus egg extracts ([α-32P]dATP incorporation); type: biochemical; conditions: [α-32P]dATP incorporation after 3 h; read-out: Inhibition of DNA synthesis IC50
Protocol: as §1, §2

[1] = system: PHA-stimulated lymphocytes (PBMC); assay: cell number of PHA-stimulated lymphocytes (PBMC), flow cytometry; type: cell-based, human; conditions: 96 hours, in the presence of IL-2; for CC50: Homo sapiens, Lymphocyte, read-out: Lymphocytes IC50
Protocol: Human peripheral blood mononuclear cells were isolated by density gradient (Ficoll-Hypaque) (LSM, ICN Biomedicals Inc.). PBMC were stimulated with 5 μg/ml phytohemaglutinin A (PHA) (Sigma) during 24-48 hours in IMDM supplemented with 10% FCS (IMDM/10% FCS) at 37° C. After washing off the PHA, PBMC were incubated with interleukin-2 (IL-2) (10 U/ml) (Genzyme).
(§3) Cells were plated at 10000 per well in 200 μl IMDM medium and incubated with 0-50 μM of the compounds of the invention (Table 5), by addition of the drugs directly to the culture medium and incubated at 37° C. for 96 hours. Absolute cell number was determined by addition of a known concentration of Fluoresbrite microspheres (FITC) (Polysciences, Inc.). The absolute number of cells per well was calculated as: {(total number of beads added per well)/(number of beads measured)}×(number of measured cells in the gate of interest). All analyses were performed with a FACScan (BD), using CELLQuest software (Becton Dickinson).
The novel compounds were tested for cytotoxicity on PHA-stimulated lymphocytes (PBMC), as one of the normal counterparts of the cell lines. Cells were grown for 96 hours in the presence of IL-2 and different concentrations of the novel compounds and cell number was counted on the flow cytometer.

KG1 cells = assay: apoptosis and cell cycle in KG1 cells (fluorescence microscopy, TUNEL); type: cell-based, human
Protocol: Nuclear morphology of the cells was analysed with the fluorochromes Hoechst 33342 (λEx max 346 nm; λEm max 460 nm) (Sigma) prepared in phosphate-buffered saline (PBS at 0.1 mg/ml, added to the culture medium at a final concentration of 2 μg/ml and ethidium bromide (EB) (λEx max 540 nm; λEm max 625 nm) (Sigma) prepared in PBS at 100 μg/ml and added to the culture medium at a final concentration of 2 μg/ml (Lizard, 1995). Hundred cells were counted for each sample and percentage of apoptosis was determined.
Control and novel compound-treated cell cultures were washed with PBS and fixed in […] (pH 7.4) for 15 minutes on ice. After washing in PBS, cells were permeabilized in 70% cold (−20° C.) ethanol and transferred to 4° C. for at least 1 hour. After rehydratation in PBS, cells were labeled with 50 μl/well TUNEL reaction mixture (Boehringer Mannheim). Cells were incubated in this solution at 37° C. for 40 minutes, washed in PBS and resuspended in 500 μl PBS containing 5 μg/ml EB and 0.1% RNAse. After 30 minutes of incubation at 4° C., green (FITC-dUTP) and red (EB-DNA) fluorescence of individual cells was measured on a FACscan flow cytometer (Gorczyca, 1993). Negative control (fixed and permeabilized cells incubated with 50 μl label solution per well without terminal transferase, instead of TUNEL reaction mixture) and positive control (fixed and permeabilized cells incubated with DNase I (100 μg/ml) that induces DNA strand breaks) were included in each experimental set-up.
Flow cytometric detection of apoptosis combined with DNA staining can identify apoptotic cells and simultaneously evaluate their position in the cell cycle. This technique was used to provide infomation about the possible cell cycle specific initiation of apoptosis by the tested compounds. If more than 2% of apoptotic cells were detected by the TUNEL method and the absolute number of acquired apoptotic events exceeded 2000, DNA content was simultaneously measured. Within the apoptotic population, analysis and calculation of the different cell cycle phases was carried out by an iterative curve fitting procedure (ModFit LT cell cycle analysis sofware from Verity software house, INC).
Viable, apoptotic, necrotic (=primary necrosis, not following apoptosis) and secondarily necrotic cells (=late apoptotis, evolving to necrosis) were scored differentially after 6, 12, 24, 48 and 72 hours of exposure to novel compounds. For the three products a different apoptosis-inducing pattern could be observed. Apoptosis induction occurs fast after incubation with P23 and P28 but slower after incubation with P27.
Flow cytometric detection of apoptosis and cell cycle analysis: The induction of apoptotic death of KG1 cells by the novel compounds was confirmed using the TUNEL reaction technique (FIG. 5). […] Incubation of KG1 cell line with P27 results in detectable apoptosis after 24 hours. Percentage of apoptotic cells in G0-G1 increases with time, while the number of apoptotic cells in S+G2/M phases decreases. […] After 6 and 12 hours of incubation the apoptotic population seems mainly to evolve from S phase.

[2] = system: myeloid leukemia KG1 cell line; assay: cell growth of KG1 cell line, flow cytometric cell count; conditions: for IC50: read-out: KGI IC50; for cell number after 6 hours of exposure, wash and 7 days in drug-free medium: KG1, compared to control without novel compounds
Protocol: To determine reversibility of the effects of the new compounds, cells were plated at 10,000 per well and exposed to 0-50 μM of the composed, either continuously for 7 days (control) or only for 6 hours. In the latter case, cells were washed after 6 hours in phosphate-buffered-saline (PBS) (Life Technologies) and reseeded into drug-free medium for 7 days.

CDC2 = target: T1, CDC2 (Homo sapiens, UniProt P06493); assay: p34cdc2 (CDC2) kinase inhibition assay, histone H1 substrate; type: biochemical; conditions: Table 5, CDC2 activity in cell free system
T1 construct: made in house; host or cells: Sf9 insect cells, baculovirus co-infection
T1 sequence (P06493 whole entry, species assumed): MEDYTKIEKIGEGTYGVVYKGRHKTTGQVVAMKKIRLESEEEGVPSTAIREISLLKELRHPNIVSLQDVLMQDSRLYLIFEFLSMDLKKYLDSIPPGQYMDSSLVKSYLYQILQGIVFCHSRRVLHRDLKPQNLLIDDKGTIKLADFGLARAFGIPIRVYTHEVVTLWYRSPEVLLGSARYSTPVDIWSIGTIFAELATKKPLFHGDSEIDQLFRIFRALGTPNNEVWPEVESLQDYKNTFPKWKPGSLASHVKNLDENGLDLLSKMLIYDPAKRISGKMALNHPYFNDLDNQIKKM
T1 sequence (P14635 whole entry partner, species assumed): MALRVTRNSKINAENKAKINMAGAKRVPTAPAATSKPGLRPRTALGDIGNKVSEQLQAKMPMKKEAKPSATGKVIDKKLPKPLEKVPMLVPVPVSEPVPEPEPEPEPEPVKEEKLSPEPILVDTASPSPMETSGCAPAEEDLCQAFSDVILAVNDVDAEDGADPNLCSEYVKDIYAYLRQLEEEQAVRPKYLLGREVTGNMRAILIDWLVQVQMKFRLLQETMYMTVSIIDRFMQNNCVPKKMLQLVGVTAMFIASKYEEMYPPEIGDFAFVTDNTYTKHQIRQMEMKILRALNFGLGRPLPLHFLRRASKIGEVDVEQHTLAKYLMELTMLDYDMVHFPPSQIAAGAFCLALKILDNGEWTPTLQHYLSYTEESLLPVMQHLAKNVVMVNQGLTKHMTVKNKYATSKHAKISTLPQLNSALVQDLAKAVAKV
Protocol: Cyclin-dependent kinases (p34^cdc2, p33^cdk2, p33^cdk4 and cyclins (cyclin B, E and DI) are produced in Sf9 insect cells coinfected with appropriate baculoviral constructs. The cells are harvested 68-72 hrs post infection in lysis buffer for 30 min on ice and the soluble fraction is recovered by centrifugation at 14.000 g for 10 min. The protein extract is stored at −80° C.
To carry out experiments on kinetics under linear conditions, the final point test system for kinase activity measurement is used. The kinase is added to the reaction mixture in such a way that linear activity is obtained with respect to the concentration of enzyme and with respect to time.
Inhibition of p33^cdk4 kinase is determined with Rb-GST (0.2 mg/ml) as the substrate. Kinase activity is determined at 30° C. in kinase buffer.
Tested compounds are usually dissolved to 100 mM solutions in DMSO, the final concentration of DMSO in reaction mixture never exceeds 1%. The controls contain suitable dilutions of DMSO. After 10 min, the addition of 3×SDS sample buffer stops the incubations. […] The measurement of kinase activity is done using digital image analysis. The kinase activity is expressed as a percentage of maximum activity, the apparent inhibition constants are determined by graphic analysis. Kinase buffer: 50 mM Hepes pH 7.4, 10 mM MgCl21 5 mM EGTA, 10 mM 2-glycerolphosphate,

[3] = system: T-lymphocyte leukemia Molt3 cell line; assay: cell growth of Molt3 cell line, flow cytometric cell count; type: cell-based, human; conditions: 96 hours of culture
Protocol: (§4) Cell lines: Human leukemic cell lines were obtained from the American Type Culture Collection (ATCC, Rockville, Md., USA). They were cultured in Iscove's Modified Dulbecco's Medium (IMDM) supplemented with 10% heat inactivated fetal calf serum (FCS), 200 U/ml penicillin, 200 μg/ml streptomycin and 1 μg/ml amphotericin B. Cells were cultured in a 5% CO2-95% air fully humidified incubator. For effects on clonogenic output, 1000 cells/well were plated in duplicate in methylcellulose (0.9%), supplemented with 20% FCS and cultured for 14 days.
as §3
The response of the myeloid leukemia KG1 and T-lymphocyte leukemia Molt3 cell lines to the cytostatic effect of the novel compounds was determined using the above-mentioned standardized bead suspension that was used to determine the absolute cell number by flow cytometric (FCM) measurement. Cells were grown in the presence of increasing concentrations of the compounds of the invention.

KG1 = assay: clonogenic output of KG1 in methylcellulose; type: cell-based, human; conditions: 25 μM, 14 days
Protocol: as §4
Clonogenic output of KG1 was tested in methylcellulose with 25 μM of some of the novel compounds.

[4] = system: adult bone marrow CD34+CD38- cells; assay: pre-CFU assay; type: cell-based, human; conditions: for IC50: 14 day liquid culture, total clonogenic output after secondary methylcellulose culture
From the text: […]. Cells with low-to-medium forward and low side scatter, highly positive green (CD34) fluorescence, and an orange (CD38) fluorescence signal lower than the mean fluorescence of cells labeled with an irrelevant isotype-matched control antibody+2 standard deviations were retained as CD34^+CD38^− cells and used in pre-CFU assays.
Pre-CFU assays were initiated by performing liquid cultures of CD34^+CD38^− cells in duplicate in 96-well flat-bottomed plates in IMDM/10% FCS, 1% bovine serum albumin (BSA), 100 U/ml IL-1, 200 U/ml IL-6, 30 U/ml IL-3 and 100 ng/ml stem cell factor (SCF). Pre-CFU cultures were initiated with 500 CD34^+CD38^− cells/well (200 μl). After 14 days of culture at 37° C. in 7.5% O2 and 5% CO2 in a fully humidified incubator, the number of cells in each well was counted. Subsequently, the cells were harvested, washed three times in IMDM/10% FCS, and plated in duplicate at 500 cells/well (1000 μl) in secondary methylcellulose CFU cultures as described for CFU assays.
Pre-CFU were cultured starting from adult bone marrow CD34^+CD38^− cells, that had been isolated using the FCM cell sorter. Novel compounds were added at different concentrations to the primary 14 day liquid culture. IC50 was calculated from dose-response curves from total clonogenic output after secondary methylcellulose culture (Table 5).

[5] = system: CD34+ hematopoietic progenitors (HPC) from adult bone marrow; assay: myeloid colony-forming unit (CFU) assay; type: cell-based, human; conditions: for IC50: 14 days, methylcellulose, total colony output
β-adrenergic receptors = assay: isoproterenol-induced intracellular cAMP synthesis in rat C6 glioma; type: cell-based; conditions: cAMP induced by 5 μM (−) isoproterenol, 30 min
Protocol: Rat C6 glioma (ATCC N° CCL107) was cultivated in monolayer in serum-free chemically defined medium containing Ham's F10/minimal essential medium (1:1 vol/vol), 2 mM L-glutamine, 1% (vol/vol) minimal essential medium vitamins (100×), 1% (vol/vol) minimal essential medium nonessential amino acids (100×), 100 U/ml penicillin, 100 μg/ml streptomycin and 30 nM sodium selenite. Incubation was at 37° C. in a humidified atmosphere. Assays were performed in the logaritmic growth phase at a density of 2.5×10^5 cells/cm^2. Intracellular cAMP synthesis was induced by addition of 5 μM (−) isoproterenol. After 30 min incubation at 37° C. the medium was removed and the cellular amount of cAMP determined using the cAMP-enzyme immunoassay kit of Amersham. The IC50 is determined from a dose-response curve in duplicate. The effect of seven purine-analogs was measured after simultaneous addition with isoproterenol.
As P2Y1-like and A2 purinergic receptors, negatively and positively coupled to adenylate cyclase respectively, are present on rat C6 glioma the modulation of the synthesis of cAMP may be due to inhibition of the activation of β-adrenergic receptors by isoproterenol or to activation of purinergic receptors.

HIV-2 = assay: anti-HIV-2 activity in CEM cells; type: cell-based
Protocol: The infected cell cultures were incubated at 37° C. for 5 days in a humidified CO2 incubator. The cytopathicity of the virus was examined by determination of MT-4 cell viability by trypan blue dye staining.

| SMILES | IC50 (MPF activity) [µM] | IC50 (DNA synthesis) [µM] | IC50 ([2]; Homo sapiens, KG-1, 96 h) [µM] | IC50 (CDC2) [µM] | IC50 ([3]; Homo sapiens, MOLT-3) [µM] | Colony output vs. control cultures without novel compound (KG1) [%] | IC50 ([4]; Homo sapiens, 336 h) [µM] | IC50 ([5]; Homo sapiens, 336 h) [µM] | output of the different types of myeloid colonies (CFU-E, CFU-G and CFU-M) ([5]; scored differentially) | further results |
| --- | --- | --- | --- | --- | --- | --- | --- | --- | --- | --- |
| CC(C)n1cnc2c(NCc3ccc(O)c(O)c3)nc(NCCCO)nc21 | 3.6 | 4.2 | – | – | – | – | – | – | – | – |
| CC[C@H](CCO)Nc1nc(NCc2ccc(O)c(O)c2)c2ncn(C(C)C)c2n1 | 2.8 | 3.5 | – | – | – | – | – | – | – | – |
| CC(C)n1cnc2c(NC(CO)c3ccccc3)nc(NCCCO)nc21 (racemic) | 1.5 | 1.4 | – | – | – | – | – | – | – | – |
| CC(C)n1cnc2c(NC(CO)c3ccccc3)nc(NCCCO)nc21 (racemic) [P27, 2-(3-hydroxypropylamino)-6-[(R,S)-(1-phenyl-2-hydroxyethyl)amino]-9-isopropylpurine] | – | – | 7 ± 2 | > 100 | 14 ± 1.5 | 8 | > 25 | > 50 | significantly lower colony output | CC50 [1]: 8 ± 0.5 µM; time of incubation after which apoptosis was detected (TUNEL) (KG1 cells; KG1): 24 h; speed of apoptosis induction (microscopic examination) (KG1 cells; KG1, 6-72 hours of exposure, FIG. 4): slower; apoptotic cells in G0-G1 phase versus control cells (KG1 cells; KG1, TUNEL with EB, FIG. 6): significant after 72 hours; cell number after 6 hours of exposure, wash and 7 days in drug-free medium [2]: (some) recovery of cell number; CFU-M colony output ([5]; scored differentially): not significantly decreased |
| CC(C)=CCNc1nc(NCCO)nc2c1ncn2C [P3, 2-(2-hydroxyethylamino)-6-(2-isopentenylamino)-9-methylpurine] | – | – | ≥ 51 | – | ≥ 51 | 47 | > 25 | > 50 | no significant difference | – |
| CC(C)n1cnc2c(NCc3ccccc3)nc(NCCCN)nc21 [P12, 2-(3-aminopropylamino)-6-benzylamino-9-isopropylpurine] | – | – | 16 ± 1.7 | 21 | 19.3 ± 2.3 | – | 20 | 37 | significantly lower colony output | Effect (β-adrenergic receptors; rat C6 glioma): inhibition; IC50 (β-adrenergic receptors; read-out: I50): 45 ± 5 µM; CC50 [1]: 8 ± 1.2 µM; cell number after 6 hours of exposure, wash and 7 days in drug-free medium [2]: (some) recovery of cell number |
| CSc1nc(NC(C)c2ccc(O)c(O)c2)c2ncn(C(C)C)c2n1 (stereo not drawn) [P16] | – | – | – | > 200 | – | 16 | – | – | no significant difference | IC50 [1]: 26.5 ± 2.8 µM; IC50 ([2]; 96 hours of culture): 23 ± 1.2 µM; IC50 [3]: 37 ± 7.9 µM; activity on pre-CFU compared with CFU [4]: more active on pre-CFU than on CFU; IC50 [4]: 16 µM; IC50 [5]: > 50 µM |
| Nc1nc(NCc2ccccc2)c2ncn(CCOCP(=O)(O)O)c2n1 [PME-derivatives: Benzylamino, reference compound] | – | – | – | – | – | – | – | – | – | HIV-2 CEM IC50 (HIV-2): >20 µg/mL |
